Tests used:
[1] = target: T1, human LXRβ (Homo sapiens, UniProt P55055); test: Ligand-binding test procedure for human LXRβ (3H T0901317 competition, flash plates); details: for Binding ratio a/b: IC50 (μM) LXRα binding/IC50 (μM) LXRβ binding; for IC50: biotinylated hLXRβ, tracer 3H T0901317
T1 construct: biotin (biotinylated; biotinylation tag not described); made in house; host or cells: E. coli
T1 sequence (P55055 1-460): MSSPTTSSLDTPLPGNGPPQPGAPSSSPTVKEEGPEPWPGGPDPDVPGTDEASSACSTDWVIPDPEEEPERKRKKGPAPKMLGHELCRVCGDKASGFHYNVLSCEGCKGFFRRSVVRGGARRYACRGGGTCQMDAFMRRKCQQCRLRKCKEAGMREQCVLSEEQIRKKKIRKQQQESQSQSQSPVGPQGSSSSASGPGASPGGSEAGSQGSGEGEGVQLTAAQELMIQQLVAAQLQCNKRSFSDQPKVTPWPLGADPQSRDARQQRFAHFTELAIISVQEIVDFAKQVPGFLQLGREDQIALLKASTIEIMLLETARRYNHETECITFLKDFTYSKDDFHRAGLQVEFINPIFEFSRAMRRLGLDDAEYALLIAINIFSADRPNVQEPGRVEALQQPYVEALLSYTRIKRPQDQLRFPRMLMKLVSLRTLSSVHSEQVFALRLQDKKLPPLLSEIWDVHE

[2] = target: T2, human LXRα (Homo sapiens, UniProt Q13133); test: Ligand-binding test procedure for human LXRα (3H T0901317 competition, flash plates); details: biotinylated hLXRα, tracer 3H T0901317
T2 construct: biotin (biotinylated; biotinylation tag not described); made in house; host or cells: E. coli
T2 sequence (Q13133 1-447): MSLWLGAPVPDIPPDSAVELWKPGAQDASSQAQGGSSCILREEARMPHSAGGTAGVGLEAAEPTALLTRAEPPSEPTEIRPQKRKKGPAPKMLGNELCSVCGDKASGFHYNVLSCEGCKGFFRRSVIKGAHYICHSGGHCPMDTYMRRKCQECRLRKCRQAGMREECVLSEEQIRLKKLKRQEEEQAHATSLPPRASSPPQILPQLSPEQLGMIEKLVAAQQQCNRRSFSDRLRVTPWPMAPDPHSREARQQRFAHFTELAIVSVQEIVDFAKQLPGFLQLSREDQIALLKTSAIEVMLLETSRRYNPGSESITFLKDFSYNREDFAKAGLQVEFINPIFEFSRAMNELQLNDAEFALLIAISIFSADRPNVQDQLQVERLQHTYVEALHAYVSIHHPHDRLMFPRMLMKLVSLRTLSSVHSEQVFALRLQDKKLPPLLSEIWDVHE
Procedure, shortened: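 Competition binding of test ligands against 5 nM ³H tracer solution (pre-mix concentration) on biotinylated hLXRα from E. coli extract, captured on streptavidin flash plates (Bmax ~4000 cpm). Ligand dilution series made in DMSO. Incubated overnight at +4 °C; bound radioactivity counted after washing.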

| Structure (SMILES) | Binding ratio a/b [1] | IC50 [1] [µM] | IC50 [2] [µM] |
| --- | --- | --- | --- |
| CC(C)C[C@H](NC(=O)c1cccc(COc2cccc(-c3c(Cc4ccccc4)cnc4c(C(F)(F)F)cccc34)c2)c1)C(=O)O [Example 96, N-[3-({3-[3-benzyl-8-(trifluoromethyl)quinolin-4-yl]phenoxy}methyl)benzoyl]leucine] | 2 | 0.546 | 1.16 |
| O=C(O)c1c(F)cccc1OCc1cccc(-c2c(Cc3ccccc3)cnc3c(C(F)(F)F)cccc23)c1 [Example 89, 2-({3-[3-benzyl-8-(trifluoromethyl)quinolin-4-yl]benzyl}oxy)-6-fluorobenzoic acid] | 2 | 1.6 | 3.98 |
| O=C(O)Cc1ccc(NCc2cncc(-c3ccnc4c(C(F)(F)F)cccc34)c2)cc1 [Example 120, {4-[({5-[8-(trifluoromethyl)quinolin-4-yl]pyridin-3-yl}methyl)amino]phenyl}acetic acid] | – | > 1 | > 1 |
| Cc1c(CC(=O)O)ccc(NCc2cccc(-c3ccnc4c(C(F)(F)F)cccc34)c2)c1C [Example 22, [2,3-dimethyl-4-({3-[8-(trifluoromethyl)quinolin-4-yl]benzyl}amino)phenyl]acetic acid] | 13 | 1.37 | 17.5 |
| Cc1cnc2c(C(F)(F)F)cccc2c1-c1cccc(CNc2cccc3c(C(=O)O)cccc23)c1 [Example 80, 5-({3-[3-methyl-8-(trifluoromethyl)quinolin-4-yl]benzyl}amino)-1-naphthoic acid] | 3 | 0.129 | 0.374 |
| Cn1cc(C(=O)O)c2cc(NCc3cccc(-c4c(Cc5ccccc5)cnc5c(C(F)(F)F)cccc45)c3)ccc21 [Example 79, 5-({3-[3-benzyl-8-(trifluoromethyl)quinolin-4-yl]benzyl}amino)-1-methyl-1H-indole-3-carboxylic acid] | 3 | 0.629 | 1.82 |
| CC(C)C[C@H](NC(=O)c1ccc(COc2cccc(-c3c(Cc4ccccc4)cnc4c(C(F)(F)F)cccc34)c2)cc1)C(=O)O [Example 81, N-[4-({3-[3-benzyl-8-(trifluoromethyl)quinolin-4-yl]phenoxy}methyl)benzoyl]leucine] | 3 | 0.236 | 0.654 |
| Cc1ccc(OCc2cccc(-c3c(Cc4ccccc4)cnc4c(C(F)(F)F)cccc34)c2)c(C(=O)O)c1 [Example 102, 2-({3-[3-benzyl-8-(trifluoromethyl)quinolin-4-yl]benzyl}oxy)-5-methylbenzoic acid] | 2 | 2.82 | 4.76 |
| Cc1cc(CC(=O)O)cc(NCc2cccc(-c3c(C)cnc4c(C(F)(F)F)cccc34)c2)c1C [Example 88, [3,4-dimethyl-5-({3-[3-methyl-8-(trifluoromethyl)quinolin-4-yl]benzyl}amino)phenyl]acetic acid] | 2 | 12.7 | 31.6 |
| Cc1cnc2c(C(F)(F)F)cccc2c1-c1cccc(CNc2ccc3cc(C(=O)O)ccc3c2)c1 [Example 15, 6-({3-[3-methyl-8-(trifluoromethyl)quinolin-4-yl]benzyl}amino)-2-naphthoic acid] | 18 | 0.117 | 2.16 |
| Cc1cc(NCc2ccsc2-c2c(Cc3ccccc3)cnc3c(C(F)(F)F)cccc23)c(C)cc1CC(=O)O [Example 32, {4-[({2-[3-benzyl-8-(trifluoromethyl)quinolin-4-yl]-3-thienyl}methyl)amino]-2,5-dimethylphenyl}acetic acid] | 8 | 0.427 | 3.33 |
| Cc1cc(NCc2ccc(-c3c(Cc4ccccc4)cnc4c(C(F)(F)F)cccc34)s2)c(C)cc1CC(=O)O [Example 47, {4-[({5-[3-benzyl-8-(trifluoromethyl)quinolin-4-yl]-2-thienyl}methyl)amino]-2,5-dimethylphenyl}acetic acid] | 6 | 0.002 | 0.013 |
| O=C(O)c1cc(Br)cc(Oc2cccc(-c3c(Cc4ccccc4)cnc4c(Cl)cccc34)c2)c1 [Example 122, 3-[3-(3-Benzyl-8-chloroquinolin-4-yl)phenoxy]-5-bromobenzoic acid] | 2 | 0.772 | 1.51 |
| Cc1cc(NCc2cccc(-c3ccnc4c(C(F)(F)F)cccc34)c2)c(C)cc1CC(=O)O [Example 4, [2,5-Dimethyl-4-({3-[8-(trifluoromethyl)quinolin-4-yl]benzyl}amino)phenyl]acetic acid] | 31 | 0.288 | 9.03 |
| O=C(O)c1ccc(F)cc1NCc1cccc(-c2c(Cc3ccccc3)cnc3c(C(F)(F)F)cccc23)c1 [Example 41, 2-({3-[3-benzyl-8-(trifluoromethyl)quinolin-4-yl]benzyl}amino)-4-fluorobenzoic acid] | 7 | 0.05 | 0.331 |
| Cn1c(C(=O)O)cc2cccc(NCc3cccc(-c4c(Cc5ccccc5)cnc5c(C(F)(F)F)cccc45)c3)c21 [Example 105, 7-({3-[3-benzyl-8-(trifluoromethyl)quinolin-4-yl]benzyl}amino)-1-methyl-1H-indole-2-carboxylic acid] | 1 | 0.129 | 0.185 |
| O=C(O)c1ccc(OCc2cccc(-c3c(Cc4ccccc4)cnc4c(C(F)(F)F)cccc34)c2)c(Cl)c1 [Example 85, 4-({3-[3-benzyl-8-(trifluoromethyl)quinolin-4-yl]benzyl}oxy)-3-chlorobenzoic acid] | 3 | 0.359 | 0.966 |
| COc1cccc(NCc2cccc(-c3c(Cc4ccccc4)cnc4c(C(F)(F)F)cccc34)c2)c1C(=O)O [Example 55, 2-({3-[3-benzyl-8-(trifluoromethyl)quinolin-4-yl]benzyl}amino)-6-methoxybenzoic acid] | 5 | 0.365 | 1.81 |
| C#CCC(C(=O)O)c1cccc2c(OCc3cccc(-c4ccnc5c(C(F)(F)F)cccc45)c3)cccc12 (centres unmarked) [Example 66, 2-[5-({3-[8-(trifluoromethyl)quinolin-4-yl]benzyl}oxy)-1-naphthyl]pent-4-ynoic acid] | 4 | 0.454 | 1.95 |
| COc1cc(COc2cccc(-c3c(Cc4ccccc4)cnc4c(C(F)(F)F)cccc34)c2)ccc1C(=O)O [Example 28, 4-({3-[3-benzyl-8-(trifluoromethyl)quinolin-4-yl]phenoxy}methyl)-2-methoxybenzoic acid] | 9 | 0.007 | 0.066 |
| Cc1cc(NCc2cncc(-c3c(Cc4ccccc4)cnc4c(C(F)(F)F)cccc34)c2)c(C)cc1CC(=O)O [Example 2, {4-[({5-[3-benzyl-8-(trifluoromethyl)quinolin-4-yl]pyridin-3-yl}methyl)amino]-2,5-dimethylphenyl}acetic acid] | 36 | 0.005 | 0.185 |
| O=C(O)c1cnc(Oc2cccc(-c3c(Cc4ccccc4)cnc4c(C(F)(F)F)cccc34)c2)cn1 [Example 121, 5-{3-[3-Benzyl-8-(trifluoromethyl)quinolin-4-yl]phenoxy}pyrazine-2-carboxylic acid] | 1 | 2.3 | 1.71 |

— US20090069373A1, “Quinoline Acids” (Wyeth, priority 2007, published 2009)
